{"source": "paper PMC4125463", "about": "(Cancer prevention research (Philadelphia, Pa.), 2014)", "type_in_all_cases": "biochemical", "key": {"p110α (PI3-K)": {"biological_target": "p110α (PI3-K) (Homo sapiens, UniProt P42336)", "sequence (P42336 whole entry)": "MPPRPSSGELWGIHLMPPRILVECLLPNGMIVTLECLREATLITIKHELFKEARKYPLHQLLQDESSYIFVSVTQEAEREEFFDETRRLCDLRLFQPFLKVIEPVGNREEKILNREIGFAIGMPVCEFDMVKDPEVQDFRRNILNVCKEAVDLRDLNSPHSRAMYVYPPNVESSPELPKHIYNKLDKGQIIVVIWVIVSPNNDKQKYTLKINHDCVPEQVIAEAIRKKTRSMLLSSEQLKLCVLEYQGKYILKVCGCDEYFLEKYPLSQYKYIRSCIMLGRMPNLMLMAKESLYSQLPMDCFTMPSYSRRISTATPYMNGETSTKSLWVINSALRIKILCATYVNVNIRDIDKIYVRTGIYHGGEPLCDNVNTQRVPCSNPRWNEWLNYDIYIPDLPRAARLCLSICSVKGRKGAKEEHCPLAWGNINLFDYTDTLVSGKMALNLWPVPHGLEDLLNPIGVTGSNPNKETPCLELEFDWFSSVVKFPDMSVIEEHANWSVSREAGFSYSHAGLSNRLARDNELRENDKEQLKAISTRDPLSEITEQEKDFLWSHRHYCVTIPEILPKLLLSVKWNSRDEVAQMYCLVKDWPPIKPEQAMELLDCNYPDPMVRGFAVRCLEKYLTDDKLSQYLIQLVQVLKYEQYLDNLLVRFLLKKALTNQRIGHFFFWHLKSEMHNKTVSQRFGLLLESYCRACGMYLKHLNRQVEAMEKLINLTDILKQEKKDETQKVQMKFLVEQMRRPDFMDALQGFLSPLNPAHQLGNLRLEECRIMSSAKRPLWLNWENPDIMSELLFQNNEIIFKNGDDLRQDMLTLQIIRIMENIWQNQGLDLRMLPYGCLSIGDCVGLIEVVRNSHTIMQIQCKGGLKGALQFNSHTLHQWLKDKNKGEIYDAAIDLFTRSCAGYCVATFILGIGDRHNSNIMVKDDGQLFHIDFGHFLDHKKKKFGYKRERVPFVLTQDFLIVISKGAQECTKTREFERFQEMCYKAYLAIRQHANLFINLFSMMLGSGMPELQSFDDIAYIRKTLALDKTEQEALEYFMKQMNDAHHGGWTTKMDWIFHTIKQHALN", "assay": "[…] lipid kinase assay with recombinant active p110α"}, "ERK2": {"biological_target": "ERK2 (Homo sapiens, UniProt P28482)", "sequence (P28482 2-360)": "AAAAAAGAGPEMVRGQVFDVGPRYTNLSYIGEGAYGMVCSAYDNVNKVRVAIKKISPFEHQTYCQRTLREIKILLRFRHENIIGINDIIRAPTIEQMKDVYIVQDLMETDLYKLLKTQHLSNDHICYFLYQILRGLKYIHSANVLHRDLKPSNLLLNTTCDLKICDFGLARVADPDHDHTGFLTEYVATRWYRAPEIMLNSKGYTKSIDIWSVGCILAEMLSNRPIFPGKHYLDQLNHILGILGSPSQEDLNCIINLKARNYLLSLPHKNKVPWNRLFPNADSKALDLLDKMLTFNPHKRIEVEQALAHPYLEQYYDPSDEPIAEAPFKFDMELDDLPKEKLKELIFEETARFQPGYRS", "assay": "[…] kinase assay with recombinant active ERK2"}, "p38α": {"biological_target": "p38α (Homo sapiens, UniProt Q16539)", "sequence (Q16539 2-360)": "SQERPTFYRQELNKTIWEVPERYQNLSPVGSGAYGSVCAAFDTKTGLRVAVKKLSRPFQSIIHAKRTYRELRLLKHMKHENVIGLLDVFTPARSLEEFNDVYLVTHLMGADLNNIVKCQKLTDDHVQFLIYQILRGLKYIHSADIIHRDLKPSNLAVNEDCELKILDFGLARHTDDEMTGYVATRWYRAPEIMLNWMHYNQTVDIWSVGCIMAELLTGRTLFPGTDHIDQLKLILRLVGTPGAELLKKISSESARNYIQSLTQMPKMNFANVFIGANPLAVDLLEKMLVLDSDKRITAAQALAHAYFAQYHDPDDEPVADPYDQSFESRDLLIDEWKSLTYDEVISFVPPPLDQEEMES", "assay": "[…] kinase assay with recombinant active p38α"}}}
{"smiles": "O=C1CCC(O)(CCOC(=O)/C=C/c2ccc(O)c(O)c2)CC1", "note": "[HOEC, (+)-2-(1-hydroxyl-4-oxocyclohexyl) ethyl caffeate]", "values": [{"measurement": "IC50", "setting": "p110α (PI3-K)", "result": 10.3, "unit": "µM"}, {"measurement": "IC50", "setting": "ERK2", "result": 20.9, "unit": "µM"}, {"measurement": "IC50", "setting": "p38α", "result": 12.9, "unit": "µM"}]}
